Experiment [1] addresses Tyrosine-protein kinase BTK (Homo sapiens) (UniProt Q06187). Nature of the experiment: Receptor occupancy at BTK in human Ramos B cells at 1 uM preincubated for 1 hr followed by compound washout measured after 20 hrs by PP-BODIPY probe based fluorescence assay. Type of experiment: cell-based.

This note sets out measurements from ChEMBL document CHEMBL4190228, “Covalent inhibitors design and discovery” (Eur J Med Chem, 2017).

The structures appear in SMILES notation.

Tyrosine-protein kinase BTK (Homo sapiens), sequence (Q06187 whole entry): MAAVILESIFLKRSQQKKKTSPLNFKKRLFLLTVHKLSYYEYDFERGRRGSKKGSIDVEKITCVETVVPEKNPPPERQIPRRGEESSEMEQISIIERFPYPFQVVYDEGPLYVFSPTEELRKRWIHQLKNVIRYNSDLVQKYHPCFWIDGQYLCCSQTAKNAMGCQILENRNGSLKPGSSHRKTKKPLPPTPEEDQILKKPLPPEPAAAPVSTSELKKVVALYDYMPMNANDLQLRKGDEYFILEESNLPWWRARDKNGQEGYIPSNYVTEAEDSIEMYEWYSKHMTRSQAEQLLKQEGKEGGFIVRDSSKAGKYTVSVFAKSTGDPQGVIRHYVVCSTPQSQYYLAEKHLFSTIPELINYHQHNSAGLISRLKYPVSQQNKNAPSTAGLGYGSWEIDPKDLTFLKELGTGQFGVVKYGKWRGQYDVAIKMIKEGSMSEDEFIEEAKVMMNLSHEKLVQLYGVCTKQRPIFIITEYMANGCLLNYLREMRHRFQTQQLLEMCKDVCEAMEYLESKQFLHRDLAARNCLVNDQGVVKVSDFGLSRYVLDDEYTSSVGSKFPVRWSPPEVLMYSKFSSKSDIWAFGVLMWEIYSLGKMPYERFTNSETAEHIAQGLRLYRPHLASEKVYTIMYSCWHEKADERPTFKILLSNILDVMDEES

`CC(C)(C)/C=C(\C#N)C(=O)N1CCC[C@@H](n2nc(-c3ccc(Oc4ccccc4)cc3)c3c(N)ncnc32)C1` came in with an Occ in experiment [1] of 50%. In the experiment on Francisella tularensis, `CC(C)(C)NC(=O)[C@H]1CC[C@H]2[C@@H]3CC[C@H]4NC(=O)C=C[C@]4(C)[C@H]3CC[C@]12C` came in with a T1/2 of 4.7 to 7.1 h.

In the case of `C/C=C(\C#N)C(=O)N1CCC[C@@H](n2nc(-c3ccc(Oc4ccccc4)cc3)c3c(N)ncnc32)C1`, the Occ in experiment [1] is 5%.
